Experimental data reported in ChEMBL document CHEMBL1944545, “Discovery of novel selective inhibitors for EGFR-T790M/L858R” (Bioorg Med Chem Lett, 2012).

Key:
[1] = biological target: Epidermal growth factor receptor (Homo sapiens, UniProt P00533); experiment: Inhibition of wild-type EGFR expressed using baculovirus expression system by ELISA
[2] = biological target: Epidermal growth factor receptor (Homo sapiens, UniProt P00533, L858R/T790M); experiment: Inhibition of EGFR T790M/L858R mutant expressed using baculovirus expression system by ELISA
[3] = tested on: A549; experiment: Antiproliferative activity against human A549 cells over-expressing EGFR gene after 72 hrs by SRB assay; type: functional, cell-based; settings: A549, 72 h
[4] = tested on: A-431; experiment: Antiproliferative activity against human A431 cells over-expressing EGFR gene after 72 hrs by SRB assay; type: functional, cell-based; settings: A-431, 72 h
[5] = tested on: NCI-H1975; experiment: Antiproliferative activity against human NCI-H1975 cells over-expressing EGFR mutant gene after 72 hrs by SRB assay; type: functional, cell-based; settings: NCI-H1975, 72 h

Sequence of Epidermal growth factor receptor (Homo sapiens, UniProt P00533) (P00533 whole entry): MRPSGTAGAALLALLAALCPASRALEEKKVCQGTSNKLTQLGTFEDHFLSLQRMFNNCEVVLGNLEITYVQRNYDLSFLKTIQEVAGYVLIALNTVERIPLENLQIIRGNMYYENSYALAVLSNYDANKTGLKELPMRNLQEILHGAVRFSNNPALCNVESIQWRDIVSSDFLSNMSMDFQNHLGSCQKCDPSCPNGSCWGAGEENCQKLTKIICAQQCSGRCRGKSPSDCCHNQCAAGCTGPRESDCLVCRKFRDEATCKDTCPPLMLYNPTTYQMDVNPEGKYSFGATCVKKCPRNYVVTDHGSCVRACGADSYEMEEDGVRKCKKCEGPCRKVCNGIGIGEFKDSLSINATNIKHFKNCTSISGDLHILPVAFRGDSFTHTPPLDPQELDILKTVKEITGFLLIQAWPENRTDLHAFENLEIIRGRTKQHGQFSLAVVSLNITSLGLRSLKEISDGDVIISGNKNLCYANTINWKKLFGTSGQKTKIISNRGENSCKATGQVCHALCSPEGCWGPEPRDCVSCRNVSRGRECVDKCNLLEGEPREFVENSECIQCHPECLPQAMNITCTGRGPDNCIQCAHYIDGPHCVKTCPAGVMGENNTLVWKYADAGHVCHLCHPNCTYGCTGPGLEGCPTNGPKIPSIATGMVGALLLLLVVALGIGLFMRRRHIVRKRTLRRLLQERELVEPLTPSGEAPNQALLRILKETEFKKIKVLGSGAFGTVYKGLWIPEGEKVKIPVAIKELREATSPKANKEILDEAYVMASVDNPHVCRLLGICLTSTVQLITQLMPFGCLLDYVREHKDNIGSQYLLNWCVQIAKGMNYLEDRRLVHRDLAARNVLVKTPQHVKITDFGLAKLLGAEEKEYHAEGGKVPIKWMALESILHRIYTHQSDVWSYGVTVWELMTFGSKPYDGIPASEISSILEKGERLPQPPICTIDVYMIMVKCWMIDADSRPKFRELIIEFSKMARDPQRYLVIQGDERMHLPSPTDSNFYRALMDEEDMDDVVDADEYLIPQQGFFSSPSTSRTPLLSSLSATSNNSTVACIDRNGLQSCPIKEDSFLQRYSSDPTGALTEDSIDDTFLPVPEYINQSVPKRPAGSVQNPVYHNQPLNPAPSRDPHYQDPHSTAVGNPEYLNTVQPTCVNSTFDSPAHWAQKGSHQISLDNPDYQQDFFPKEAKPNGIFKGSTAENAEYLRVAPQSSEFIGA
Sequence of Epidermal growth factor receptor (Homo sapiens, UniProt P00533, L858R/T790M) (P00533 25-1210 T790M/L858R limits assumed): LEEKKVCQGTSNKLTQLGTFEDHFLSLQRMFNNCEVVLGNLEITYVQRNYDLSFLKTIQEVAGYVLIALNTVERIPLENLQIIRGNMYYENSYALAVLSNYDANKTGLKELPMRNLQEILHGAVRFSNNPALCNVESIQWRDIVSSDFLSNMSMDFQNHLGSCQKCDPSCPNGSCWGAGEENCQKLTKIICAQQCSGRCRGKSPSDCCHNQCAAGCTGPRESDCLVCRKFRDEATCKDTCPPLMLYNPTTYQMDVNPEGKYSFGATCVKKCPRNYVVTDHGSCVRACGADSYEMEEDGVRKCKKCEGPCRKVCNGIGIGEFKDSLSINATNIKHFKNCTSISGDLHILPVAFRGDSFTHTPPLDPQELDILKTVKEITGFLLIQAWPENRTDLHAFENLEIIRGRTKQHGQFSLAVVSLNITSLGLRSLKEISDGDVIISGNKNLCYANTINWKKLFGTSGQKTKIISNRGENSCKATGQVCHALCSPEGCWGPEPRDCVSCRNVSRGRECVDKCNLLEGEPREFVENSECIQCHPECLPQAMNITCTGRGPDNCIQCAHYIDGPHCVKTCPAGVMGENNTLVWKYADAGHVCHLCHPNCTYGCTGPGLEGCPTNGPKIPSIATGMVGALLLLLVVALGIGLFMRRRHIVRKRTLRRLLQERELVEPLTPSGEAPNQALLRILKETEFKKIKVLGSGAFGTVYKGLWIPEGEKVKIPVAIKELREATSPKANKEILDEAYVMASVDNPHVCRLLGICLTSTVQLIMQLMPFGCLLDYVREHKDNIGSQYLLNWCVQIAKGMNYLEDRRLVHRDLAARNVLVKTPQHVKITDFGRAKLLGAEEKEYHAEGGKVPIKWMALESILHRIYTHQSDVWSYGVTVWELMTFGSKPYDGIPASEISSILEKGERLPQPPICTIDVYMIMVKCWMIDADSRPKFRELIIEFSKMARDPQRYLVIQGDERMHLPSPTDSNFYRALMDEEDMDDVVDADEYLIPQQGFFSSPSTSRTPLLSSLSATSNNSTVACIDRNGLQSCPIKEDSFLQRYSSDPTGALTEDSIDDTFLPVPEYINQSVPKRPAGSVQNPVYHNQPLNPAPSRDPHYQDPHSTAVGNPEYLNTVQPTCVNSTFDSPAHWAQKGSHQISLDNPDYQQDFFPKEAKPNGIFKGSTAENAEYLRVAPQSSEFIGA

| SMILES | IC50 [1] [µM] | IC50 [2] [µM] | IC50 [3] [µM] | IC50 [4] [µM] | IC50 [5] [µM] |
| --- | --- | --- | --- | --- | --- |
| COc1ccc(Nc2nc(Cl)nc(NCc3ccco3)n2)cc1 | > 100 | 20.9 | > 100 | > 100 | > 100 |
| Cc1ccc(-n2c(SCC(=O)Nc3ccccc3Cl)nc3sc(C)c(C)c3c2=O)cc1 | 81.6 | > 100 | 92.8 | > 100 | 53.7 |
| Cn1cc(NC(=O)/C=N/O)c(=O)n1-c1ccccc1 | > 100 | 8.9 | > 100 | > 100 | > 100 |
| COc1cccc2c1C(=O)c1c(O)ccc(O)c1C2=O | 4.3 | 17.6 | > 100 | 71.5 | 89.4 |
| Cn1c2ccccc2n2c(=S)[nH]nc12 | > 100 | 22 | > 100 | > 100 | > 100 |
| CC(=O)Nc1ccc(S(=O)(=O)Nc2nc3ccccc3nc2Nc2ccc(C(=O)O)cc2)cc1 | 35.8 | 23.5 | > 100 | > 100 | > 100 |
| Cc1c(Cc2ccccc2)sc(NCC(=O)COc2ccc3ccccc3c2)c1C(N)=O | > 100 | 24.7 | 61.1 | 63.8 | 51.7 |
| O=C(NNC(=O)c1ncc(Cc2ccsc2)s1)Nc1ccccc1 | > 100 | 40.9 | > 100 | > 100 | > 100 |
| O=C(Nc1cccc(Br)c1)c1c(O)c2ccccc2[nH]c1=O | > 100 | 56.8 | > 100 | > 100 | > 100 |
| CCc1ccc(C(=O)NNc2ccc(Cl)cc2C)cc1 | > 100 | 65.6 | > 100 | > 100 | > 100 |
| COc1ccc2c3oc(=O)cc(O)c3c(=O)n(C)c2c1 | 76.4 | 65.1 | 72.6 | > 100 | > 100 |
| C=CCn1c(N)c(C(=O)N/N=C/c2cccs2)sc1=S | > 100 | 66 | > 100 | > 100 | > 100 |
| O=c1c2c(-c3ccccc3)c3c(nc2nc2[nH]nc(S)n12)-c1ccccc1CC3 | 85.6 | > 100 | > 100 | > 100 | > 100 |
| CCOC(=O)c1ccc(NC(=O)CSc2nnc(CNc3ccc(OC)cc3)n2-c2ccccc2)cc1 | 92.4 | > 100 | > 100 | 56.3 | > 100 |
| CN(C)c1nc(N/N=C/c2cc(Br)c(O)c(Br)c2O)nc(Nc2ccc(F)cc2)n1 | 25.9 | 6.5 | 7.7 | 8 | 10.5 |
| O=C(CSc1nc(O)nc(-c2ccc(Cl)cc2)n1)Nc1ccc(Cl)cc1 | > 100 | 13 | 42.9 | > 100 | > 100 |
| CNc1nc(N/N=C\c2ccc(OC)cc2)nc(Nc2ccccc2)n1 | > 100 | 31 | 76.9 | 56 | > 100 |
| COc1nc(NCCN2CCOCC2)nc(Nc2ccc(Cl)cc2)n1 | > 100 | 1.5 | > 100 | > 100 | > 100 |
| CNc1nc(N/N=C/c2ccc(O)cc2)nc(Nc2ccccc2)n1 | > 100 | 30.7 | > 100 | 47 | > 100 |
| COc1cccc(Nc2ccnc(Nc3cccc(OC)c3)n2)c1 | 7.7 | 36.1 | 3.4 | 0.8 | 4.1 |
| COc1ccccc1Nc1ccnc(Nc2ccccc2OC)n1 | 90.4 | > 100 | 51.2 | 35.1 | 38.2 |
| C=CC(=O)Nc1ccc2ncnc(Nc3ccc(OCc4cccc(F)c4)c(Cl)c3)c2c1 [ALLITINIB] |  |  | 6.8 | 0.2 | 0.7 |
